Results reported in patent publication US8569344B2, “N-piperidinyl acetamide derivatives as calcium channel blockers” (Zalicus Pharmaceuticals Ltd., priority 2008, dated 2013).

Target: T1, human α1G T-type channels (Homo sapiens, UniProt O43497)
T1 construct: expressed in transfected cells; host or cells: HEK 293
Experiment: T-type calcium channel block, whole cell patch clamp in HEK cells (α1G)
Format: cell-based
Conditions: HEK cells, patch clamp, mainly non-inactivated protocol; values above 10 μM shown as 10 μM, below 0.30 μM shown as 0.30 μM; read-out: T-type Calcium Channel Block α1G IC50
Experimental: T-type calcium channel blocking activity was assayed in human embryonic kidney cells, HEK 293, stably transfected with the T-type calcium channel subunits. Briefly, cells were cultured in Dulbecco's modified eagle medium (DMEM) supplemented with 10% fetal bovine serum, 200 U/ml penicillin and 0.2 mg/ml streptomycin at 37° C. with 5% CO2. At 85% confluency cells were split with 0.25% trypsin/1 mM EDTA and plated at 10% confluency on glass coverslips. […] Fresh DMEM was supplied and the cells transferred to 28° C./5% CO2. Cells were incubated for 1 to 2 days prior to whole cell recording.
Standard patch-clamp techniques were employed to identify blockers of T-type currents. Briefly, previously described HEK cell lines stably expressing human α1G, α1H and α1I T-type channels were used for all the recordings (passage #: 4-20, 37° C., 5% CO2). Whole cell patch clamp experiments were performed using an Axopatch 200B amplifier (Axon Instruments, Burlingame, Calif.) linked to a personal computer equipped with pCLAMP software. Data were analyzed using Clampfit (Axon Instruments) and SigmaPlot 4.0 (Jandel Scientific). To obtain T-type currents, plastic dishes containing semi-confluent cells were positioned on the stage of a ZEISS AXIOVERT S100 microscope after replacing the culture medium with external solution (see below). Whole-cell patches were obtained using pipettes (borosilicate glass with filament, O.D.: 1.5 mm, I.D.: 0.86 mm, 10 cm length), fabricated on a SUTTER P-97 puller with resistance values of ˜5 MΩ (see below for internal solution).
In the non-inactivating protocol, the holding potential is set at −110 mV and with a pre-pulse at −100 mV for 1 second prior to the test pulse at −40 mV for 50 ms.
Test compounds were dissolved in external solution, 0.1-0.01% DMSO. After ˜10 min rest, they were applied by gravity close to the cell using a WPI microfil tubing. The “non-inactivated” pre-pulse was used to examine the resting block of a compound. The “inactivated” protocol was employed to study voltage-dependent block. […] Values are shown in μM and values above 10 μM are simply represented as 10 μM.

T1 sequence (O43497 whole entry): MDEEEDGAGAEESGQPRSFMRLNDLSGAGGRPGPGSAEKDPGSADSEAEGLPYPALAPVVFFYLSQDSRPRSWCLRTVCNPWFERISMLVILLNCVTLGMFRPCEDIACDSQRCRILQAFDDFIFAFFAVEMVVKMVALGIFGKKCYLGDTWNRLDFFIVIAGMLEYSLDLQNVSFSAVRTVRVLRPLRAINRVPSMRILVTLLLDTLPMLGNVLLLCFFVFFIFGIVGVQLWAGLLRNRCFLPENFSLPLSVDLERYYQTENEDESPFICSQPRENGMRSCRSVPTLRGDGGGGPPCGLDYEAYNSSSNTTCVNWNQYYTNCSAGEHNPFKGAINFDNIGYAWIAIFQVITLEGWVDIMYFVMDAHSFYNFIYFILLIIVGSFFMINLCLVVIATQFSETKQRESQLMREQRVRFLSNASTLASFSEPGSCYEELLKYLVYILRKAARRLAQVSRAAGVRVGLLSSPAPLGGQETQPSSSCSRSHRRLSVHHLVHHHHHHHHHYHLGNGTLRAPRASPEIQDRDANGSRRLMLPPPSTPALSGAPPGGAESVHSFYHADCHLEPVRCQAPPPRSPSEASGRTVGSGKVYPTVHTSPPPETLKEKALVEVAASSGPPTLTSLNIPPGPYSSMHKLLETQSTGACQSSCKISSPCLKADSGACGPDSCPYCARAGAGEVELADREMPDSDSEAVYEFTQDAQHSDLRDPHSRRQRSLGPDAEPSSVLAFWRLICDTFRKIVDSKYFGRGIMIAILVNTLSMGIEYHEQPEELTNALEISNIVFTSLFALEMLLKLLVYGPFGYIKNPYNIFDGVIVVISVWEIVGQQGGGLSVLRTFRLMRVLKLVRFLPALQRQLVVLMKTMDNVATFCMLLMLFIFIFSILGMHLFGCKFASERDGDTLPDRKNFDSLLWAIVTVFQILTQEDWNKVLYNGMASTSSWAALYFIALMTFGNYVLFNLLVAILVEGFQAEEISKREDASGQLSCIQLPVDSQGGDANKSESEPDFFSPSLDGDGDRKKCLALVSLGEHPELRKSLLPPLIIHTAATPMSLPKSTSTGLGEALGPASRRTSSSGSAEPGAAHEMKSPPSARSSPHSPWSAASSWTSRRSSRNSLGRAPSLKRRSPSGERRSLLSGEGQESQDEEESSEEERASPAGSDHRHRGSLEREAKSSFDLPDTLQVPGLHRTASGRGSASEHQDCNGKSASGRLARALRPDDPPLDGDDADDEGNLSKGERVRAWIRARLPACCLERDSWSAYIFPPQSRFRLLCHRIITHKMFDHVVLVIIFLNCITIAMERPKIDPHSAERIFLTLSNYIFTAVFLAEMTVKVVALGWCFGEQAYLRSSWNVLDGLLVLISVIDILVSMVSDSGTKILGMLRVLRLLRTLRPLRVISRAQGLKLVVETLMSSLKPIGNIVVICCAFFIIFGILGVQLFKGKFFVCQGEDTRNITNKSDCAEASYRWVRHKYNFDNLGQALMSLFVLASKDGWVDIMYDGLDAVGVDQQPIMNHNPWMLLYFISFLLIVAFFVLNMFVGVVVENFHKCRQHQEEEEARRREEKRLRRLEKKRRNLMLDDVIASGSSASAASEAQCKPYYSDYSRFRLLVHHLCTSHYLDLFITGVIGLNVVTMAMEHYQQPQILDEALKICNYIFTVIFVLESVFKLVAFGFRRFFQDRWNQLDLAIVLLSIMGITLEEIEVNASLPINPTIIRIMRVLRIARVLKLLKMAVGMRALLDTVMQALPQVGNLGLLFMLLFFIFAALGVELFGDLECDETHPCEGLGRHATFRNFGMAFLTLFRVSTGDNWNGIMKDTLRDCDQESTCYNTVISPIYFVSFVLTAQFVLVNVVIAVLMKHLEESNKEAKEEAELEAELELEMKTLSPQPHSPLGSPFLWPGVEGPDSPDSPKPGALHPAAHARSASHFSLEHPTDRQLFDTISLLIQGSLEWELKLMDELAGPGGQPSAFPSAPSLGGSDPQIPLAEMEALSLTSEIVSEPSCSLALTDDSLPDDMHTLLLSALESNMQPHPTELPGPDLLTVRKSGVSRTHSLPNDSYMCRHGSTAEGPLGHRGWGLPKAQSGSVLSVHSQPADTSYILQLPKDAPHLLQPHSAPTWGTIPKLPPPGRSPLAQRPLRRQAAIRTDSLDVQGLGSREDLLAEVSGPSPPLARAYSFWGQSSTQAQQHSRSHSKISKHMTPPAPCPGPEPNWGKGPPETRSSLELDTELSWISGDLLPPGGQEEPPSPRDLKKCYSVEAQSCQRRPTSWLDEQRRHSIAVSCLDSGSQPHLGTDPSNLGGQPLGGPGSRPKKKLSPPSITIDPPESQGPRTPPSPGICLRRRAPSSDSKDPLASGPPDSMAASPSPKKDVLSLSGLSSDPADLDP

Row | Structure (SMILES) | IC50 [µM]
1 | CCC(O)(C(=O)N1CCC(CNC(=O)c2cc(C(F)(F)F)cc(C(F)(F)F)c2)CC1)C(C)(C)C (stereo not shown) [Compound 90, N-((1-(2-ethyl-2-hydroxy-3,3-dimethylbutanoyl)piperidin-4-yl)methyl)-3,5-bis(trifluoromethyl)benzamide] | 4.27
2 | CS(=O)(=O)N1CCC[C@H]1CN1CCC(CNC(=O)c2cc(F)cc(C(F)(F)F)c2)CC1 [Compound 416, (S)-3-fluoro-N-((1-((1-(methylsulfonyl)pyrrolidin-2-yl)methyl)piperidin-4-yl)methyl)-5-(trifluoromethyl)benzamide] | > 10
3 | O=C(NCC1CCN(CCNC(=O)C2CCCC2)CC1)c1cccc(C(F)(F)F)c1 [Compound 398, N-((1-(2-(cyclopentanecarboxamido)ethyl)piperidin-4-yl)methyl)-3-(trifluoromethyl)benzamide] | 3.53
4 | COc1cc(F)cc(C(=O)NCC2CCN(CCNC(=O)C3CCCC3)CC2)c1 [Compound 396, N-((1-(2-(cyclopentanecarboxamido)ethyl)piperidin-4-yl)methyl)-3-fluoro-5-methoxybenzamide] | 2.91
5 | CC(C)(CO)NC(=O)CN1CCC(CNC(=O)c2cc(C(F)(F)F)cc(C(F)(F)F)c2)CC1 [Compound 430, N-((1-(2-(1-hydroxy-2-methyl-propan-2-ylamino)-2-oxoethyl)piperidin-4-yl)methyl)-3,5-bis(trifluoromethyl)benzamide] | < 0.3
6 | O=C(NCC1CCN(CCNC(=O)C2CCCC2)CC1)c1cccc(Cl)c1 [Compound 394, 3-chloro-N-((1-(2-(cyclopentanecarboxamido)ethyl)piperidin-4-yl)methyl)benzamide] | 4.61
7 | CCS(=O)(=O)NC(CN1CCC(CC(=O)NC(c2cccc(F)c2)c2cccc(F)c2)CC1)C(C)(C)C (stereo not shown) [Compound 220, N-(bis(3-fluorophenyl)methyl)-2-(1-(2-(ethylsulfonamido)-3,3-dimethylbutyl)piperidin-4-yl)acetamide] | 6.91
8 | Cc1cc(C)cc(C(=O)NCC2CCN(CCNC(=O)C3CCCC3)CC2)c1 [Compound 392, N-((1-(2-(cyclopentanecarboxamido)ethyl)piperidin-4-yl)methyl)-3,5-dimethyl-benzamide] | 2.01
9 | CC(C)(C)OC(=O)NCCN1CCC(CNC(=O)c2ccc(F)cc2F)CC1 [Compound 51, tert-butyl 2-(4-((2,4-difluorobenzamido)methyl)piperidin-1-yl)ethylcarbamate] | > 10
10 | CCOc1cc(OCC)cc(C(=O)NCC2CCN(CCNC(=O)C3CCCC3)CC2)c1 [Compound 403, N-((1-(2-(cyclopentanecarboxamido)ethyl)piperidin-4-yl)methyl)-3,5-diethoxybenzamide] | 1.11
11 | CN(CC1CCN(CCNC(=O)NC(C)(C)C)CC1)C(=O)c1cc(F)cc(C(F)(F)F)c1 [Compound 411, N-((1-(2-(3-tert-butylureido)ethyl)piperidin-4-yl)methyl)-3-fluoro-N-methyl-5-(trifluoromethyl)benzamide] | > 10
12 | NC1(C(=O)N2CCC(CNC(=O)c3cc(C(F)(F)F)cc(C(F)(F)F)c3)CC2)CCCCC1 [Compound 86, N-((1-(1-aminocyclohexanecarbonyl)piperidin-4-yl)methyl)-3,5-bis(trifluoromethyl) benzamide] | > 10
13 | O=C(NCC1CCN(C[C@@H]2CCCN2C(=O)CCC(F)(F)F)CC1)c1cc(F)cc(C(F)(F)F)c1 [Compound 426, (S)-3-fluoro-N-((1-((1-(4,4,4-trifluorobutanoyl)pyrrolidin-2-yl)methyl)piperidin-4-yl)methyl)-5-(trifluoromethyl)benzamide] | < 0.3
14 | O=C(NCC1CCN(CCNC(=O)C2CCCC2)CC1)c1cc(F)cc(Cl)c1 [Compound 397, 3-chloro-N-((1-(2-(cyclopentanecarboxamido)ethyl)piperidin-4-yl)methyl)-5-fluoro-benzamide] | 1.78
15 | CC(C)(C)C(N)CN1CCC(CC(=O)NCc2cc(Cl)cc(Cl)c2)CC1 (stereo not shown) [Compound 201, 2-(1-(2-amino-3,3-dimethylbutyl)piperidin-4-yl)-N-(3,5-dichlorobenzyl) acetamide] | > 10
16 | CC(C)(C)C(=O)N1CCC[C@H]1CN1CCC(CNC(=O)c2cc(F)cc(C(F)(F)F)c2)CC1 [Compound 423, (S)-3-fluoro-N-((1-((1-pivaloyl-pyrrolidin-2-yl)methyl)piperidin-4-yl)methyl)-5-(trifluoromethyl) benzamide] | 2.08

Row | Structure (SMILES) | IC50 [µM]
17 | O=C(NCC1CCN(C[C@@H]2CCCN2S(=O)(=O)C2CCC2)CC1)c1cc(F)cc(C(F)(F)F)c1 [Compound 419, (S)-N-((1-((1-(cyclobutylsulfonyl)pyrrolidin-2-yl)methyl)piperidin-4-yl)methyl)-3-fluoro-5-(trifluoromethyl)benzamide] | 1.63
18 | CC(C)S(=O)(=O)NC(CN1CCC(CC(=O)NCCc2c[nH]c3ccc(F)cc23)CC1)C(C)(C)C (stereo not shown) [Compound 206, 2-(1-(3,3-dimethyl-2-(1-methylethylsulfonamido)butyl)piperidin-4-yl)-N-(2-(5-fluoro-1H-3-yl)ethyl)acetamide] | > 10
19 | O=C(Cc1cc(C(F)(F)F)cc(C(F)(F)F)c1)NCC1CCN(CCNC(=O)C2CCCC2)CC1 [Compound 408, N-(2-(4-((2-(3,5-bis(trifluoromethyl)phenyl)acetamido)methyl)piperidin-1-yl)ethyl)cyclopentanecarboxamide] | 3.36
20 | CC(C)(C)C(CN1CCC(CC(=O)NCc2cc(Cl)cc(Cl)c2)CC1)NS(C)(=O)=O (stereo not shown) [Compound 207, N-(3,5-dichhlorobenzyl)-2-(1-(3,3-dimethyl-2-(methylsulfonamido)butyl)piperidin-4-yl)acetamide] | > 10
21 | O=C(NCC1CCN(CCNC(=O)C2CCCC2)CC1)c1cc(Br)cc(Br)c1 [Compound 409, 3,5-dibromo-N-((1-(2-(cyclopentanecarboxamido)ethyl)piperidin-4-yl)methyl)benzamide] | < 0.3
22 | O=C(NCC1CCN(C[C@@H]2CCCN2S(=O)(=O)C2CCCC2)CC1)c1cc(F)cc(C(F)(F)F)c1 [Compound 420, (S)-N-((1-((1-(cyclopentylsulfonyl)pyrrolidin-2-yl)methyl)piperidin-4-yl)methyl)-3-fluoro-5-(trifluoromethyl)benzamide] | 0.7
23 | CC(C)(C)NC(=O)CN1CCC(CNC(=O)c2cc(Br)cc(OC(F)(F)F)c2)CC1 [Compound 429, 3-bromo-N-((1-(2-(tert-butylamino)-2-oxoethyl)piperidin-4-yl)methyl)-5-(trifluoromethoxy)benzamide] | < 0.3
24 | CC(C)(C)[C@H](O)C(=O)N1CCC(CNC(=O)c2cc(C(F)(F)F)cc(C(F)(F)F)c2)CC1 [Compound 76, (S)-N-((1-(2-hydroxy-3,3-dimethylbutanoyl)piperidin-4-yl)methyl)-3,5-bis(trifluoromethyl) benzamide] | 7.62
25 | CN(CC1CCN(CCNC(=O)C(C)(C)C)CC1)C(=O)c1cc(F)cc(C(F)(F)F)c1 [Compound 412, 3-fluoro-N-methyl-N-((1-(2-pivalamidoethyl)piperidin-4-yl)methyl)-5-(trifluoromethyl)benzamide] | > 10
26 | CC(C)(C)OC(=O)NCCN1CCC(CNC(=O)c2cccc(OC(C)(C)C)c2)CC1 [Compound 50, tert-butyl 2-(4-((3-tert-butoxybenzamido)methyl)piperidin-1-yl)ethylcarbamate] | 8.97
27 | CC(C)(C)C(N)CN1CCC(CC(=O)NC(c2cccc(F)c2)c2cccc(F)c2)CC1 (stereo not shown) [Compound 217, 2-(1-(2-amino-3,3-dimethylbutyl)piperidin-4-yl)-N-(bis(3-fluorophenyl)methyl)acetamide] | 5.82
28 | O=C(NCC1CCN(CCNC(=O)C2CCCC2)CC1)c1cc(F)cc(F)c1 [Compound 395, N-((1-(2-(cyclopentanecarboxamido)ethyl)piperidin-4-yl)methyl)-3,5-difluoro-benzamide] | > 10
29 | CC(C)(C)C(CN1CCC(CC(=O)NCc2cc(Cl)cc(Cl)c2)CC1)NS(=O)(=O)C1CC1 (stereo not shown) [Compound 209, 2-(1-(2-(cyclopropanesulfonamido)-3,3-dimethylbutyl)piperidin-4-yl)-N-(3,5-dichlorobenzyl)acetamide] | 8.6
30 | Cc1cccc(C)c1NC(=O)CC1CCN(CCNS(=O)(=O)C(C)C)CC1 [Compound 433, N-(2,6-dimethylphenyl)-2-(1-(2-(1-methylethylsulfonamido)ethyl)piperidin-4-yl)acetamide] | > 10
31 | Cc1cc(F)cc(C(=O)NCC2CCN(CCNC(=O)C3CCCC3)CC2)c1 [Compound 393, N-((1-(2-(cyclopentanecarboxamido)ethyl)piperidin-4-yl)methyl)-3-fluoro-5-methylbenzamide] | 6.04
